pIC50: −log10 of the molar value.
Key:
[1] = target: T1, Tyrosine-protein phosphatase non-receptor type 1 (Homo sapiens, UniProt P18031); assay: Inhibition of PTP1B (unknown origin) using pNPP as substrate after 30 mins
T1 sequence (P18031 whole entry): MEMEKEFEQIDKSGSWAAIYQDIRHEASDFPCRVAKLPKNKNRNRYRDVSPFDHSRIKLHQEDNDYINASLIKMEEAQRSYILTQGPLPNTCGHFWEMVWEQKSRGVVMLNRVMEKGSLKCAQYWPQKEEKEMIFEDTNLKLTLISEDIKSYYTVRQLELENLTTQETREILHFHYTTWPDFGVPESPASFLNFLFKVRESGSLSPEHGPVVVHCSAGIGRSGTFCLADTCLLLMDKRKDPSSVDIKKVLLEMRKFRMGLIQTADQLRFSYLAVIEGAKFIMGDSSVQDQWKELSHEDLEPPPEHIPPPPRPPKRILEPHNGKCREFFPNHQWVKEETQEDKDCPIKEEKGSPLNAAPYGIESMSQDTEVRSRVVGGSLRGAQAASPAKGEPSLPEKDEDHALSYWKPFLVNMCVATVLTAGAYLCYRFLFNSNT

[2] = target: T2, Tyrosine-protein phosphatase non-receptor type 2 (Homo sapiens, UniProt P17706); assay: Inhibition of TCPTP (unknown origin) using pNPP as substrate after 30 mins
T2 sequence (P17706 whole entry): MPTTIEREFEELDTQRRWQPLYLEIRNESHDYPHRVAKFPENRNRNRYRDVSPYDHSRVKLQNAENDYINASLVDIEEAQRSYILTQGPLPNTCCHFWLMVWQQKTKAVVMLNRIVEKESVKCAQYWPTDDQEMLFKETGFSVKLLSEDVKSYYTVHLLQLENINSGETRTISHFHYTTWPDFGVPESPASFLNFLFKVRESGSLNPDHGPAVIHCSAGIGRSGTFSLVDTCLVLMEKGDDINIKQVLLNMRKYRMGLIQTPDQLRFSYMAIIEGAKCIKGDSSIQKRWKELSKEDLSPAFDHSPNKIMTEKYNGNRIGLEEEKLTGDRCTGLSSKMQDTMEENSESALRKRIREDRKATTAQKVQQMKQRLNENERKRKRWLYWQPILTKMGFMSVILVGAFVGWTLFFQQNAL

[3] = target: T3, Tyrosine-protein phosphatase non-receptor type 11 (Homo sapiens, UniProt Q06124); assay: Inhibition of SHP2 (unknown origin) using pNPP as substrate after 30 mins
T3 sequence (Q06124 whole entry): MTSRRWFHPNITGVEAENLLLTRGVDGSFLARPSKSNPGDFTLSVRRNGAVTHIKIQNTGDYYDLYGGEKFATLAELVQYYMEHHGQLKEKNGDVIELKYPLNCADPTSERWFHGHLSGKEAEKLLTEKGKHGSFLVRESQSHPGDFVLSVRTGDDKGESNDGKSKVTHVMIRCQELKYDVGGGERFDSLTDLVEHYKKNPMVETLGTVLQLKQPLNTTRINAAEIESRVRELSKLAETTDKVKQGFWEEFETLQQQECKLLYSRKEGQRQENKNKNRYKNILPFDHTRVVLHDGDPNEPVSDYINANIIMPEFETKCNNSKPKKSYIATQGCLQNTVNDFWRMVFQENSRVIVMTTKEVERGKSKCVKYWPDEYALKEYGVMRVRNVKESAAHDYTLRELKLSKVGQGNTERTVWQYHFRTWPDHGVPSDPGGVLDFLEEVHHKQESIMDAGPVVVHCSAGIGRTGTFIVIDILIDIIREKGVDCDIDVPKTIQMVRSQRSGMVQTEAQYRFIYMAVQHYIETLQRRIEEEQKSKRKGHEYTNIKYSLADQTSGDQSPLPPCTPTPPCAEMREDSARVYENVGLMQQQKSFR

[4] = Apparent permeability of compound at 10 uM at pH 7.4 after 12 hrs by PAMPA; assay type: ADME
[5] = target: T4, Tyrosine-protein phosphatase non-receptor type 1 (Homo sapiens) (UniProt P18031); assay: Inhibition of PTP1B in human HepG2 cells assessed as increase in insulin stimulated glucose uptake at 5 uM preincubated for 24 hrs followed by insulin addition and measured after 10 mins by 2-NBDG dye-based FACS analysis relative to control; assay type: cell-based; design: scale not given: the % may be the effect or the level left
T4 sequence (whole entry): T1 sequence (P18031 whole entry)

[6] = target: T4, Tyrosine-protein phosphatase non-receptor type 1 (Homo sapiens); assay: Inhibition of PTP1B in human HepG2 cells assessed as increase in insulin stimulated glucose uptake at 10 uM preincubated for 24 hrs followed by insulin addition and measured after 10 mins by 2-NBDG dye-based FACS analysis relative to control; assay type: cell-based; design: scale not given: the % may be the effect or the level left
[7] = target: T4, Tyrosine-protein phosphatase non-receptor type 1 (Homo sapiens); assay: Inhibition of PTP1B in human HepG2 cells assessed as increase in insulin stimulated glucose uptake at 20 uM preincubated for 24 hrs followed by insulin addition and measured after 10 mins by 2-NBDG dye-based FACS analysis relative to control; assay type: cell-based; design: scale not given: the % may be the effect or the level left

SMILES | pIC50 [1] | other results
CCOS(=O)(=O)/C=C/c1ccc(O[C@@H]2CN(C(=O)C(=O)Nc3ccc(Oc4ccc(F)cc4)cc3)C[C@@H]2Oc2ccc(CCS(=O)(=O)OCC)cc2)cc1 | 5.91 | –
CCOS(=O)(=O)/C=C/c1ccc(O[C@@H]2CN(C(=O)C(=O)Nc3ccc(Oc4ccc(C(C)(C)C)cc4)cc3)C[C@H]2Oc2ccc(CCS(=O)(=O)OCC)cc2)cc1 | 6.37 | –
CCOS(=O)(=O)/C=C/c1ccc(O[C@@H]2CN(C(=O)Nc3ccccc3)C[C@H]2Oc2ccc(/C=C/S(=O)(=O)OCC)cc2)cc1 | 5.45 | –
CCOS(=O)(=O)/C=C/c1ccc(O[C@@H]2CN(C(=O)c3ccc(Oc4ccc(C(C)C)cc4)cc3)C[C@H]2Oc2ccc(/C=C/S(=O)(=O)OCC)cc2)cc1 | 5.47 | –
CCOS(=O)(=O)/C=C/c1ccc(O[C@@H]2CN(C(=O)C(=O)Nc3ccc(Oc4ccc(C(C)C)cc4)cc3)C[C@H]2Oc2ccc(/C=C/S(=O)(=O)OCC)cc2)cc1 | 6.38 | –
CCOS(=O)(=O)/C=C/c1ccc(O[C@@H]2CN(Cc3ccccc3)C[C@H]2Oc2ccc(/C=C/S(=O)(=O)OCC)cc2)cc1 | 5.03 | –
CCOS(=O)(=O)/C=C/c1ccc(O[C@@H]2CN(C(=O)C(=O)Nc3ccc(Oc4ccccc4)cc3)C[C@@H]2Oc2ccc(CCS(=O)(=O)OCC)cc2)cc1 | 5.55 | –
CCOS(=O)(=O)/C=C/c1ccc(O[C@@H]2CN(C(=O)C(=O)Nc3ccc(Oc4ccc(F)cc4)cc3)C[C@H]2Oc2ccc(CCS(=O)(=O)OCC)cc2)cc1 | 6.34 | –
CCOS(=O)(=O)/C=C/c1ccc(O[C@@H]2CN(C(=O)Nc3ccc(Oc4ccccc4)cc3)C[C@H]2Oc2ccc(/C=C/S(=O)(=O)OCC)cc2)cc1 | 5.71 | –
CCOS(=O)(=O)/C=C/c1ccc(O[C@@H]2CNC[C@H]2Oc2ccc(/C=C/S(=O)(=O)OCC)cc2)cc1 | 4.77 | pIC50 [2]: 4.53; pIC50 [3]: 4.63; Papp at 12 h, 10 µM [4]: 0.93 ×10⁻⁶ cm/s
CCOS(=O)(=O)/C=C/c1ccc(O[C@@H]2CN(C(=O)Nc3ccc(Oc4ccc(C(C)C)cc4)cc3)C[C@H]2Oc2ccc(/C=C/S(=O)(=O)OCC)cc2)cc1 | 5.86 | –
CCOS(=O)(=O)/C=C/c1ccc(O[C@@H]2CN(Cc3ccc(Oc4ccccc4)cc3)C[C@H]2Oc2ccc(/C=C/S(=O)(=O)OCC)cc2)cc1 | 5.13 | –
CCCCCCc1ccc(NC(=O)C(=O)N2C[C@H](Oc3ccc(CCS(=O)(=O)OCC)cc3)[C@H](Oc3ccc(/C=C/S(=O)(=O)OCC)cc3)C2)cc1 | 5.81 | –
CCOS(=O)(=O)/C=C/c1ccc(O[C@@H]2CN(C(=O)C(=O)Nc3ccc(Oc4ccc(Cl)cc4)cc3)C[C@@H]2Oc2ccc(CCS(=O)(=O)OCC)cc2)cc1 | 5.84 | –
CCOS(=O)(=O)/C=C/c1ccc(O[C@@H]2CN(C(=O)C(=O)Nc3ccc(Oc4ccc(Cl)cc4)cc3)C[C@H]2Oc2ccc(CCS(=O)(=O)OCC)cc2)cc1 | 6.42 | –
CCOS(=O)(=O)/C=C/c1ccc(O[C@@H]2CN(C(=O)C(=O)Nc3ccc(Oc4ccc(C(C)C)cc4)cc3)C[C@@H]2Oc2ccc(CCS(=O)(=O)OCC)cc2)cc1 | 5.86 | –
CCOS(=O)(=O)/C=C/c1ccc(O[C@@H]2CN(C(=O)C(=O)Nc3ccc(Oc4ccc5ccccc5c4)cc3)C[C@H]2Oc2ccc(CCS(=O)(=O)OCC)cc2)cc1 | 6.44 | –
CCOS(=O)(=O)/C=C/c1ccc(O[C@@H]2CN(C(=O)C(=O)Nc3ccc(Oc4ccc(Br)cc4)cc3)C[C@@H]2Oc2ccc(CCS(=O)(=O)OCC)cc2)cc1 | 5.82 | –
CCOS(=O)(=O)/C=C/c1ccc(O[C@@H]2CN(C(=O)C(=O)Nc3ccc(Oc4ccc(C(C)(C)C)cc4)cc3)C[C@@H]2Oc2ccc(CCS(=O)(=O)OCC)cc2)cc1 | 5.93 | –
CCOS(=O)(=O)/C=C/c1ccc(O[C@@H]2CN(C(=O)C(=O)Nc3ccc(Oc4ccc5ccccc5c4)cc3)C[C@@H]2Oc2ccc(CCS(=O)(=O)OCC)cc2)cc1 | 5.90 | –
CCOS(=O)(=O)/C=C/c1ccc(O[C@@H]2CN(C(=O)C(=O)Nc3ccc(Oc4ccccc4)cc3)C[C@H]2Oc2ccc(/C=C/S(=O)(=O)OCC)cc2)cc1 | 5.97 | –
CCOS(=O)(=O)/C=C/c1ccc(O[C@H]2CNC[C@H]2Oc2ccc(/C=C/S(=O)(=O)OCC)cc2)cc1 | 4.56 | pIC50 [2]: 4.32; pIC50 [3]: 4.26; Papp at 12 h, 10 µM [4]: 0.87 ×10⁻⁶ cm/s
CCOS(=O)(=O)/C=C/c1ccc(O[C@@H]2CN(C(=O)C(=O)Nc3ccccc3)C[C@H]2Oc2ccc(/C=C/S(=O)(=O)OCC)cc2)cc1 | 5.60 | pIC50 [2]: 5.11; pIC50 [3]: 5.25; Papp at 12 h, 10 µM [4]: 1.27 ×10⁻⁶ cm/s
CCOS(=O)(=O)/C=C/c1ccc(O[C@@H]2CN(C(=O)c3ccccc3)C[C@H]2Oc2ccc(/C=C/S(=O)(=O)OCC)cc2)cc1 | 5.11 | –
CCOS(=O)(=O)/C=C/c1ccc(O[C@@H]2CN(Cc3ccc(Oc4ccc(C(C)C)cc4)cc3)C[C@H]2Oc2ccc(/C=C/S(=O)(=O)OCC)cc2)cc1 | 5.16 | –
CCOS(=O)(=O)/C=C/c1ccc(O[C@@H]2CN(C(=O)c3ccc(Oc4ccccc4)cc3)C[C@H]2Oc2ccc(/C=C/S(=O)(=O)OCC)cc2)cc1 | 5.53 | –
CCOS(=O)(=O)/C=C/c1ccc(O[C@@H]2CN(C(=O)C(=O)Nc3ccc(Oc4ccc(Br)cc4)cc3)C[C@H]2Oc2ccc(CCS(=O)(=O)OCC)cc2)cc1 | 6.36 | –
CCCCCCc1ccc(NC(=O)C(=O)N2C[C@@H](Oc3ccc(/C=C/S(=O)(=O)OCC)cc3)[C@H](Oc3ccc(CCS(=O)(=O)OCC)cc3)C2)cc1 | 6.21 | –
CC(C)NCC(O)COc1cccc2ccccc12 (stereo unspecified) [PROPRANOLOL] | – | Papp at 12 h, 10 µM [4]: 8.71 ×10⁻⁶ cm/s
CCc1ccc(CCOc2ccc(CC3SC(=O)NC3=O)cc2)nc1 (stereo unspecified) | – | Activity [5]: 51.1%; Activity [6]: 70.2%; Activity [7]: 78.9%
